For 25 compounds, EC50 results are on record in patent US8147818B2, “Hepatitis C virus inhibitors” (Bristol-Myers Squibb Company, priority 2008, dated 2012).

The term EC50 denotes the midpoint of the concentration-response curve.

Structures are written as SMILES.

One test concerns HCV 1b-377-neo replicon cells. In words: HCV Replicon assay, HCV 1b-377-neo replicon cells. It counts as cell-based, HCV 1b genotype. The conditions noted are these: Hepatitis C virus, read-out: EC50 against HCV 1b (Activity or Range). The method, then: An HCV Replicon assay was utilized in the present disclosure, and was prepared, conducted and validated as described in commonly owned PCT/US2006/022197 and in O'Boyle et. al. Antimicrob Agents Chemother. 2005 April; 49(4):1346-53.
HCV 1b-377-neo replicon cells were used to test the currently described compound series as well as cells resistant to compound A containing a Y2065H mutation in NS5A (described in application PCT/US2006/022197). The compounds tested were determined to have more than 10-fold less inhibitory activity on cells containing the mutation than wild-type cells indicating a related mechanism of action between the two compound series. Thus, the compounds of the present disclosure can be effective to inhibit the function of the HCV NS5A protein and are understood to be as effective in combinations as previously described in application PCT/US2006/022197 and commonly owned WO/O4014852. Further, the compounds of the present disclosure can be effective against the HCV 1b genotype. It should also be understood that the compounds of the present disclosure can inhibit multiple genotypes of HCV. […] In one embodiment compounds of the present disclosure are active against the 1a, 1b, 2a, 2b, 3a, 4a, and 5a genotypes.
A general note: In antiviral work, replicon cells carry a viral genome segment that copies itself.
For `COC(=O)N[C@H](C(=O)N1CC(F)(F)C[C@H]1c1ncc(-c2ccc(-c3ccc4c(c3)CCc3[nH]c([C@@H]5CCCN5C(=O)[C@@H](NC(=O)OC)C(C)C)nc3-4)cc2)[nH]1)C(C)C` [Example 22t], the half-maximal effective concentration (EC50) was 0.001 nM.

With `CCN(CC)[C@@H](C(=O)N1CC(F)(F)C[C@H]1c1ncc(-c2ccc(-c3ccc4c(ccc5[nH]c([C@@H]6CCCN6C(=O)[C@@H](c6ccccc6)N(CC)CC)nc54)c3)cc2)[nH]1)c1ccccc1` [Example 22w.a], the EC50 was determined as 0.12 nM. Regarding `COC(=O)N[C@H](C(=O)N1CCC[C@H]1c1ncc(-c2ccc(-c3ccc4c(c3)CCCc3[nH]c([C@@H]5CCCN5C(=O)[C@@H](NC(=O)OC)C(C)C)nc3-4)cc2F)[nH]1)C(C)C` [Example 22g], the concentration giving a half-maximal response (EC50) came out at 0.001 nM.

The test is the same for the next values; noted with them: Hepatitis C virus, read-out: EC50 against HCV 1b (Activity or Range), range class.
As for `CCN(CC)[C@@H](C(=O)N1CCC[C@H]1c1nc2c([nH]1)CCCc1cc(-c3ccc4c(c3)CCCc3[nH]c([C@@H]5CCCN5C(=O)[C@@H](c5ccccc5)N(CC)CC)nc3-4)ccc1-2)c1ccccc1` [Example 22k.1], the 50% effective concentration (EC50) lay within 0.001 to 0.1 nM. In the case of `CCN(CC)[C@@H](C(=O)N1CC(F)(F)C[C@H]1c1ncc(-c2ccc(-c3ccc4c(c3)CCc3[nH]c([C@@H]5CCCN5C(=O)[C@@H](c5ccccc5)N(CC)CC)nc3-4)cc2)[nH]1)c1ccccc1` [Example 22t.a], the EC50 is 0.001 to 0.1 nM. On to `CCN(CC)[C@@H](C(=O)N[C@@H](C)c1nc2c([nH]1)CCCc1cc(-c3ccc(-c4cnc([C@@H]5CCCN5C(=O)[C@@H](c5ccccc5)N(CC)CC)[nH]4)cc3)ccc1-2)c1ccccc1` [Example 22c.1], for which the EC50 lay in the range of 0.001 to 0.1 nM.

For the compound `CCN(CC)[C@@H](C(=O)N1CCC[C@H]1c1ncc(-c2ccc(-c3ccc4c(c3)CCCc3[nH]c([C@@H]5CCCN5C(=O)[C@@H](c5ccccc5)N(CC)CC)nc3-4)cc2F)[nH]1)c1ccccc1` [Example 22g.1], the EC50 was in the range of 0.001 to 0.1 nM.

With `COC(=O)N[C@H](C(=O)N1CCC[C@H]1c1ncc(-c2ccc(-c3ccc4c(c3)CCc3[nH]c([C@@H]5CCCN5C(=O)[C@@H](NC(=O)OC)C(C)C)nc3-4)cc2F)[nH]1)C(C)C` [Example 22s], the EC50 was in the range of 0.001 to 0.1 nM. With `COC(=O)N[C@@H](C(=O)N1[C@@H]2C[C@@H]2C[C@H]1c1nc2c(ccc3cc(-c4ccc5c(ccc6nc([C@@H]7C[C@H]8C[C@H]8N7C(=O)[C@H](NC(=O)OC)c7ccccc7)[nH]c65)c4)ccc32)[nH]1)c1ccccc1` [Example 22u.5a], the EC50 fell in the range of 0.001 to 0.1 nM. Still for that read-out and setting: the result for `COC(=O)N[C@@H](C(=O)N1CCC[C@H]1c1ncc(-c2ccc(-c3ccc4c(c3)CCCc3[nH]c([C@@H]5CCCN5C(=O)[C@H](NC(=O)OC)c5ccccc5)nc3-4)cc2)[nH]1)c1ccccc1` [Example 22.3] reads 0.001 to 0.1 nM; that for `COC(=O)N[C@H](C(=O)N[C@@H](C)c1nc2c([nH]1)CCCc1cc(-c3ccc(-c4cnc([C@@H]5CCCN5C(=O)[C@@H](NC(=O)OC)C(C)C)[nH]4)cc3)ccc1-2)C(C)C` [Example 22c], 0.001 to 0.1 nM. For `COC(=O)N[C@H](C(=O)N1[C@@H]2C[C@@H]2C[C@H]1c1nc2ccc3cc(-c4ccc5c(ccc6[nH]c([C@@H]7C[C@H]8C[C@H]8N7C(=O)[C@@H](NC(=O)OC)C7CCOCC7)nc65)c4)ccc3c2[nH]1)C(C)C` [Example 24.2b], the EC50 lay within 0.001 to 0.1 nM.

Regarding `CCN(CC)[C@@H](C(=O)N1[C@@H]2C[C@@H]2C[C@H]1c1ncc(-c2ccc(-c3ccc4c(c3)CCCc3[nH]c([C@@H]5C[C@H]6C[C@H]6N5C(=O)[C@@H](c5ccccc5)N(CC)CC)nc3-4)cc2)[nH]1)c1ccccc1` [Example 22c.3], the EC50 lay within 0.001 to 0.1 nM. Same read-out and setting: to `COC(=O)N[C@H](C(=O)N1CCC[C@H]1c1nc2ccc3cc(-c4ccc5c(ccc6[nH]c([C@@H]7CCCN7C(=O)[C@H](NC(=O)OC)c7ccccc7)nc65)c4)ccc3c2[nH]1)C(C)C` [Example 24.1a] belongs 0.001 to 0.1 nM; to `CCN(CC)[C@@H](C(=O)N1CCC[C@H]1c1nc2c(ccc3cc(-c4ccc5c(ccc6nc([C@@H]7CCCN7C(=O)[C@@H](NC(=O)OC)C(C)C)[nH]c65)c4)ccc32)[nH]1)c1ccccc1` [Example 24.1], 0.001 to 0.1 nM; to `COC(=O)N[C@H](C(=O)N1[C@@H]2C[C@@H]2C[C@H]1c1nc2ccc3cc(-c4ccc5c(ccc6[nH]c([C@@H]7C[C@H]8C[C@H]8N7C(=O)C(c7ccccc7)N7C8CCC7CC8)nc65)c4)ccc3c2[nH]1)C(C)C` (stereo partly shown) [Example 24.2d], 0.001 to 0.1 nM. As to `COC(=O)N[C@H](C(=O)N1[C@@H]2C[C@@H]2C[C@H]1c1nc2c([nH]1)-c1ccc(-c3ccc4c(ccc5[nH]c([C@@H]6C[C@H]7C[C@H]7N6C(=O)[C@@H](NC(=O)OC)C(C)C)nc54)c3)cc1CC2)C(C)C` [Example 22u.4], the EC50 lay in the range of 0.001 to 0.1 nM. As to `CCN(CC)[C@@H](C(=O)N1CCC[C@H]1c1ncc(-c2ccc(-c3ccc4c(c3)CCCc3[nH]c([C@@H]5CCCN5C(=O)[C@@H](c5ccccc5)N(CC)CC)nc3-4)cc2)[nH]1)c1ccccc1` [Example 22.1], the concentration giving a half-maximal response (EC50) is 0.001 to 0.1 nM.

Regarding `COC(=O)N[C@H](C(=O)N1[C@@H]2C[C@@H]2C[C@H]1c1nc2c(ccc3cc(-c4ccc5c(ccc6nc([C@@H]7C[C@H]8C[C@H]8N7C(=O)[C@@H](NC(=O)OC)C(C)C)[nH]c65)c4)ccc32)[nH]1)C(C)C` [Example 22u.5], the 50% effective concentration (EC50) was 0.001 to 0.1 nM. Same read-out and setting: the result for `COC(=O)N[C@H](C(=O)N1[C@@H]2C[C@@H]2C[C@H]1c1nc2ccc3cc(-c4ccc5c(ccc6[nH]c([C@@H]7C[C@H]8C[C@H]8N7C(=O)[C@H](NC(=O)OC)c7ccccc7)nc65)c4)ccc3c2[nH]1)C(C)C` [Example 24.2a] reads 0.001 to 0.1 nM. Consider `CCN(CC)[C@@H](C(=O)N1CCC[C@H]1c1ncc(-c2ccc(-c3ccc4c(c3)CCc3[nH]c([C@@H]5CCCN5C(=O)[C@@H](c5ccccc5)N(CC)CC)nc3-4)cc2)[nH]1)c1ccccc1` [Example 22r.a], for which the EC50 lay within 0.001 to 0.1 nM.

Take `CCN(CC)[C@@H](C(=O)N1CCC[C@H]1c1ncc(-c2cccc(-c3ccc4c(c3)-c3nc([C@@H]5CCCN5C(=O)[C@@H](c5ccccc5)N(CC)CC)[nH]c3CCC4)c2)[nH]1)c1ccccc1` [Example 22j.1]: the EC50 was 1 to 99 nM. Still for that read-out and setting: the result for `COC(=O)N[C@H](C(=O)N[C@@H](C)c1ncc(-c2ccc(-c3ccc4c(c3)CCCc3[nH]c([C@@H]5CCCN5C(=O)[C@@H](NC(=O)OC)C(C)C)nc3-4)cc2)[nH]1)C(C)C` [Example 22f] reads 0.001 to 0.1 nM; that for `COC(=O)N[C@H](C(=O)N1CCC[C@H]1c1nc2c([nH]1)CCCc1cc(-c3ccc(-c4[nH]c([C@@H]5CCCN5C(=O)[C@@H](NC(=O)OC)C(C)C)nc4CCC(F)(F)F)cc3)ccc1-2)C(C)C` [Example 22a.4], 0.001 to 0.1 nM; that for `COC(=O)N[C@@H](C)C(=O)N1CCC[C@H]1c1ncc(-c2ccc(-c3ccc4c(c3)CCCc3[nH]c([C@@H]5CCCN5C(=O)[C@@H](NC(=O)OC)C(C)C)nc3-4)cc2)[nH]1` [Example 24.b], 0.001 to 0.1 nM.
